In patent publication US8895585B2, “Nicotinamide derivative or salt thereof” (FUJIFILM Corporation, priority 2010, dated 2014) one finds IC50 data, which are given here for 33 compounds.

The assay concerns the target T1, glutathione S-transferase (GST)-fused full-length human Syk protein (Homo sapiens, UniProt P43405).
T1 construct: (GST)-fused full-length human Syk protein; GST (glutathione S-transferase); purchased Carna Biosciences
Put plainly: Syk enzyme assay. The format is biochemical. As to conditions: Syk enzyme assay, Test Example 1; read-out: IC50 of Syk-inhibitory activity. On the procedure: A glutathione S-transferase (GST)-fused full-length human Syk protein (Carna Biosciences), which had been generated using a Baculovirus expression system, was used in the Syk enzyme assay.
15 μl of a reaction solution (1.2 ng Syk, 20 mM HEPES, 10 mM MgCl2, 50 mM NaCl, 2 mM DTT, 0.05% BSA, pH 7.0) containing a Syk protein and a predetermined concentration of a test compound was shaken for 2 minutes, and it was then left at rest at room temperature for 13 minutes. Thereafter, 5 μl of Biotin-EDPDYEWPSA-NH2 (final concentration: 0.4 μM) serving as a substrate peptide and 5 μl of ATP (final concentration: 27 μM) were added to the reaction solution, and the obtained mixture was then shaken for 2 minutes. The reaction solution was further left at rest at room temperature for 40 minutes, so as to carry out an enzyme reaction.
Thereafter, 50 μl of a reaction termination solution [5 μg/ml Streptavidin, 0.18 μg/ml PT66-K, 30 mM HEPES (pH 7.0), 150 mM KF, 75 mM EDTA, 0.15% BSA, 0.075% Tween20], which contained Streptavidin-Xlent (Cisbio) and Mab PT66-K (Cisbio), was added to the reaction solution to terminate the enzyme reaction. At the same time, the reaction solution was left at rest at room temperature for 1 hour, so as to carry out an antigen-antibody reaction. Thereafter, using EnVision (PerkinElmer), the time-resolved fluorescence was measured at 615 nm and 665 nm, so that the phosphorylation of the substrate peptide was measured.
In addition, the following are standards for evaluating IC50 of Syk-inhibitory activity used in Table 21. • A: Up to 10 nM • B: 10 to 50 nM • C: 50 to 100 nM • D: 100 to 1000 nM The set of numbers (XYZ-xyz) given in each Example number column indicates the corresponding Example number (Example XYZ-xyz) in Table 21.
As to `COc1cc(Nc2nc(N[C@H]3CCCC[C@H]3N)c(F)cc2C(N)=O)cc(OC)n1` [Example 006-115, 6-((1S,2R)-2-aminocyclohexylamino)-2-((2,6-dimethoxypyridin-4-yl)amino)-5-fluoronicotinamide], the IC50 (commonly the point on the concentration scale where inhibition reaches its midpoint) was in the range of 100 to 1000 nM. With `NC(=O)c1cc(F)c(NC2CCCCC2N)nc1Nc1cncc(C2=CCCCC2)c1` (stereo not drawn) [Example 002-095] the figure was under 10 nM. As for `CC(C)(N)CNc1nc(Nc2ccc3ncccc3c2)c(C(N)=O)cc1F` [Example 014-011, 6-((2-amino-2-methylpropyl)amino)-5-fluoro-2-((quinolin-6-yl)amino)nicotinamide], the figure is 10 to 50 nM; as for `Cc1cc(Nc2nc(NC3CCCCC3N)c(F)cc2C(N)=O)c(F)cn1` (stereo not drawn) [Example 002-164], 50 to 100 nM.

For `C[C@H](N)[C@@H](CC1CC1)Nc1nc(Nc2ccc3c(c2)c(N2CCOCC2)nn3C)c(C(N)=O)cc1F` [Example 006-561, 6-(((2R,3S)-3-amino-1-cyclopropylbutan-2-yl)amino)-5-fluoro-2-((1-methyl-3-morpholino-1H-indazol-5-yl)amino)nicotinamide], the IC50 was under 10 nM. With `CC(C)C[C@H](CN)Nc1nc(Nc2ccc3c(cnn3CC(F)F)c2)c(C(N)=O)cc1F` [Example 006-422, (R)-6-((1-amino-4-methylpentan-2-yl)amino)-2-((1-(2,2-difluoroethyl)-1H-indazol-5-yl)amino)-5-fluoronicotinamide] the figure was under 10 nM; with `NC[C@H](Nc1nc(Nc2ccc3cccnc3c2)c(C(N)=O)cc1F)c1ccccc1` [Example 006-134, (R)-6-((2-amino-1-phenylethyl)amino)-5-fluoro-2-(quinolin-7-ylamino)nicotinamide], 10 to 50 nM. With `CC(=O)Nc1cc(Nc2nc(N[C@@H]3CCCC[C@@H]3N)c(F)cc2C(N)=O)ccn1` (relative stereo) [Example 004-048] the figure was 10 to 50 nM; with `NC(=O)c1cc(F)c(NC2CCCCC2N)nc1Nc1cncc(NC(=O)c2ccc3occc3c2)c1` (stereo not drawn) [Example 027-037], 10 to 50 nM; with `CC(C)COc1ccc2cc(Nc3nc(NC4CCCCC4N)c(F)cc3C(N)=O)ccc2n1` (stereo not drawn) [Example 002-105], 10 to 50 nM. As for `CC(C)C[C@@H](Nc1nc(Nc2ccc3c(c2)c(C(C)C)nn3C)c(C(N)=O)cc1F)[C@H](C)N` [Example 006-542, 6-(((2S,3R)-2-amino-5-methylhexan-3-yl)amino)-5-fluoro-2-((3-isopropyl-1-methyl-1H-indazol-5-yl)amino)nicotinamide], the figure is under 10 nM; as for `Cn1ccc(-c2cncc(Nc3nc(N[C@@H]4CCCC[C@@H]4N)c(F)cc3C(N)=O)c2)c1` (relative stereo) [Example 004-119, 6-(cis-2-aminocyclohexylamino)-5-fluoro-2-((5-(1-methyl-1H-pyrrol-3-yl)pyridin-3-yl)-amino)nicotinamide], under 10 nM. Regarding `CN(C)C(=O)Cn1ccc2c(Nc3nc(N[C@@H]4CCCC[C@@H]4N)c(F)cc3C(N)=O)ccnc21` [Example 029-004], the IC50 was under 10 nM. As to `CCOc1cnc2cc(Nc3nc(N[C@@H]4CCCC[C@@H]4N)c(F)cc3C(N)=O)ccc2n1` (relative stereo) [Example 004-176, 6-(cis-2-aminocyclohexylamino)-2-((2-ethoxyquinoxalin-6-yl)amino)-5-fluoronicotinamide], the IC50 was under 10 nM.

For `COc1ncc(Nc2nc(NC3CCCCC3N)c(F)cc2C(N)=O)cc1-c1ccccc1` (stereo not drawn) [Example 002-148], the IC50 was 10 to 50 nM.

Consider `NC(=O)c1cc(F)c(NC2CCCC[C@@H]2N)nc1Nc1ccnc2c1ccn2CC(=O)N1CCOCC1` (stereo partly drawn) [Example 029-006], for which the IC50 was under 10 nM. As to `C[C@H](N)[C@@H](CC1CC1)Nc1nc(Nc2ccc3cnn(CC(F)F)c3c2)c(C(N)=O)cc1F` [Example 006-438, 6-(((2R,3S)-3-amino-1-cyclopropylbutan-2-yl)amino)-2-((1-(2,2-difluoroethyl)-1H-indazol-6-yl)amino)-5-fluoronicotinamide], the IC50 was 10 to 50 nM.

With `Cn1ncc2cc(Nc3nc(N[C@H](c4ccccc4)[C@@H](N)c4ccccc4)c(F)cc3C(N)=O)ccc21` (racemic) [Example 006-136, 6-(((1R,2S)-2-amino-1,2-diphenylethyl)amino)-5-fluoro-2-((1-methyl-1H-indazol-5-yl)amino)nicotinamide 6-(((1S,2R)-2-amino-1,2-diphenylethyl)amino)-5-fluoro-2-((1-methyl-1H-indazol-5-yl)amino)nicotinamide], the IC50 was under 10 nM.

Regarding `NC(=O)c1cc(F)c(N[C@@H]2CCCC[C@@H]2N)nc1Nc1cncc(-c2cc(Cl)ccc2F)c1` (relative stereo) [Example 004-207, 6-(cis-2-aminocyclohexylamino)-2-((5-(5-chloro-2-fluorophenyl)pyridin-3-yl)amino)-5-fluoronicotinamide], the IC50 was under 10 nM. As for `CC(=O)N(C)c1cccc2cc(Nc3nc(N[C@@H]4CCCC[C@@H]4N)c(F)cc3C(N)=O)cnc12` [Example 004-034], the figure is 50 to 100 nM; as for `CCCC[C@H](CN)Nc1nc(Nc2cccc3c2cnn3C)c(C(N)=O)cc1F` [Example 006-339, (R)-6-((1-aminohexan-2-yl)amino)-5-fluoro-2-((1-methyl-1H-indazol-4-yl)amino)nicotinamide], 10 to 50 nM; as for `Cc1nccn1-c1ccc(Nc2nc(N[C@@H]3CCCC[C@@H]3N)c(F)cc2C(N)=O)cn1` [Example 006-536, 6-(((1R,2S)-2-aminocyclohexyl)amino)-5-fluoro-2-((6-(2-methyl-1H-imidazol-1-yl)pyridin-3-yl)amino)nicotinamide], 100 to 1000 nM. As for `C[C@H](N)[C@H](C)Nc1nc(Nc2ccc3ncccc3c2)c(C(N)=O)cc1F` [Example 006-202, 6-(((2S,3S)-3-aminobutan-2-yl)amino)-5-fluoro-2-((quinolin-6-yl)amino)nicotinamide], the figure is 50 to 100 nM; as for `CCOc1ncc(Nc2nc(N[C@@H]3CCCC[C@@H]3N)c(F)cc2C(N)=O)cc1C1CC1` [Example 006-573, 6-(((1R,2S)-2-aminocyclohexyl)amino)-2-((5-cyclopropyl-6-ethoxypyridin-3-yl)amino)-5-fluoronicotinamide], 10 to 50 nM; as for `CC[C@H](N)C(CC(C)C)Nc1nc(Nc2ccc3ncccc3c2)c(C(N)=O)cc1F` (stereo partly drawn) [Example 006-151, 6-(((5S)-5-amino-2-methylheptan-4-yl)amino)-5-fluoro-2-(quinolin-6-ylamino)nicotinamide], 10 to 50 nM.

`CCc1nn(C)c2ccc(Nc3nc(N[C@H](CC(C)C)[C@H](C)N)c(F)cc3C(N)=O)cc12` [Example 006-538, 6-(((2S,3R)-2-amino-5-methylhexan-3-yl)amino)-2-((3-ethyl-1-methyl-1H-indazol-5-yl)amino)-5-fluoronicotinamide]: the half-inhibitory concentration (IC50) is under 10 nM. In the case of `NC(=O)c1cc(F)c(NCC2CCCCN2)nc1Nc1ccc2ncccc2c1` (stereo not drawn) [Example 014-021], the IC50 was in the range of 100 to 1000 nM. With `NC(=O)c1cc(F)c(NCc2cnn[nH]2)nc1Nc1ccc2ncccc2c1` [Example 012-027] the figure was 50 to 100 nM. With `NC(=O)c1cc(F)c(N[C@@H]2CCCC[C@@H]2N)nc1Nc1cncc(-c2cccc(F)c2)c1` (relative stereo) [Example 004-144, 6-(cis-2-aminocyclohexylamino)-5-fluoro-2-((5-(3-fluorophenyl)pyridin-3-yl)amino)-nicotinamide] the figure was under 10 nM. As to `CC(C)COc1nccc2cc(Nc3nc(N[C@@H]4CCCC[C@@H]4N)c(F)cc3C(N)=O)ccc12` (relative stereo) [Example 004-167, 6-(cis-2-aminocyclohexylamino)-5-fluoro-2-((1-isobutoxyisoquinolin-6-yl)amino)-nicotinamide], the IC50 was under 10 nM. With `COc1cc(Nc2nc(N[C@H](c3ccccc3)[C@@H](N)c3ccccc3)c(F)cc2C(N)=O)ccn1` [Example 006-139] the figure was 10 to 50 nM. With `COc1cccc(-c2cc(Nc3nc(N[C@@H](CN)CC(C)C)c(F)cc3C(N)=O)ccn2)c1F` [Example 006-327, (R)-6-((1-amino-4-methylpentan-2-yl)amino)-5-fluoro-2-((2-(2-fluoro-3-methoxyphenyl)pyridin-4-yl)amino)nicotinamide] the figure was under 10 nM; with `NC(=O)c1cc(F)c(N[C@@H]2CCCC[C@@H]2N)nc1Nc1cnc(-n2cccn2)c(-n2cccn2)c1` [Example 006-448, 6-(((1R,2S)-2-aminocyclohexyl)amino)-2-((5,6-di(1H-pyrazol-1-yl)pyridin-3-yl)amino)-5-fluoronicotinamide], 50 to 100 nM.
